# Reference: patent US11279712B2, “Macrocyclic compounds that inhibit MCL-1 protein” (AMGEN INC., priority 2017, dated 2022)
# Where two headings read alike, the source gives them in different places.
# Columns and labels:
# [1] = biological target: Mcl-1/Bim interaction (recombinant human Mcl-1 residues 171-327) (Homo sapiens (Human), UniProt Q07820); assay: Cell Free Mcl-1:Bim Affinity Assay (Mcl-1 HTRF); assay type: binding; conditions: TR-FRET, 0.1 nM Mcl-1(171-327), 0.05 nM biotin-Bim(51-76)
# Sequence of Mcl-1/Bim interaction (recombinant human Mcl-1 residues 171-327) (Q07820 171-327): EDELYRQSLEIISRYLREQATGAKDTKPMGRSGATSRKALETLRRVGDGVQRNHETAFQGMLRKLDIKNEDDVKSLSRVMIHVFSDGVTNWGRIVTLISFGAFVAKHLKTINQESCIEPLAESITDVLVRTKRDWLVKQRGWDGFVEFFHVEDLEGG
# Experimental: Cell Free Mcl-1:Bim Affinity Assay (Mcl-1 HTRF)
# The inhibition of the Mcl-1/Bim interaction was measured using a time-resolved fluorescence resonance energy transfer (TR-FRET) assay. The recombinant human Mcl-1 (C-terminally 6×His tagged Mcl-1 containing residues 171-327) was generated at Amgen Inc (Thousand Oaks, Calif.). A biotinylated peptide derived from human Bim (residues 51-76) was purchased from CPC Scientific (San Jose, Calif.). The TR-FRET assay was conducted in a 384-well white OptiPlate™ (PerkinElmer, Waltham, Mass.) in a total volume of 40 μL. The reaction mixture contained 0.1 nM Mcl-1(171-327), 0.05 nM biotin-Bim(51-76), 0.05 nM LANCES Eu-W1024 Anti-6×His (PerkinElmer), 0.072 nM Streptavidin-Xlent (Cisbio, Bedford, Mass.), and serially diluted test compounds in the binding buffer of 20 mM Hepes, pH 7.5, 150 mM NaCl, 0.016 mM Brij®35, and 1 mM dithiothreitol. Test compounds were pre-incubated with Mcl-1(171-327) and biotin-Bim (51-76) for 60 min before addition of the detection mixture (LANCE® Eu-W1024 Anti-6×His and Streptavidin-Xlent). The reaction plates were further incubated overnight and then were read on an Envision® multimode reader (PerkinElmer). Fluorescence signals were measured at 620 nm (40-nm bandwidth) and 665 nm (7.5-nm bandwidth) with a 60 μs delay after excitation at 320 nm (75-nm bandwidth). The signal ratio at 665/620 nm corresponded to the Mcl-1/Bim interaction and was used in all data analyses. The IC50 values of test compounds were determined from duplicate data by analyzing competition curves using a four-parameter sigmoidal model in GraphPad Prism (GraphPad Software, San Diego, Calif.) or in Genedata Screener® (Genedata, Basel, Switzerland).
# [2] = system: OPM-2 human multiple myeloma cell line; assay: Cell Viability Assay (OPM-2 10 FBS); assay type: cell-based; conditions: OPM-2 cells, CellTiter-Glo, read-out: OPM-2 10% FBS IC50 IP
# Experimental: Cell Viability Assay (OPM-2 10 FBS)
# The human multiple myeloma cell line, OPM-2, was cultured in complete growth medium containing RPMI 1640 and 10% fetal bovine serum (FBS). Cells were seeded into 384-well plates at 3000 cells/well density in complete growth medium containing 10% FBS, and incubated for 16 h with serially diluted test compounds in a 37° C. incubator with 5% CO2. Cell viability was tested using CellTiter-Glo® assay (Promega, Madison, Wis.) according to the manufacturer recommendations. Luminescence was determined using an EnVision® Multilabel plate reader 25 min after the addition of detection reagent. IC50 values were then calculated with Xlfit using a logistical 4-parameter fit model in GraphPad Prism (GraphPad Software, San Diego, Calif.) or in Genedata Screener® (Genedata, Basel, Switzerland).
IC50 [1] [nM],IC50 ([2]; 16 h) [nM],"IC50 ([2]; Homo sapiens, OPM-2, 16 h) [nM]",Structure (SMILES)
0.212,172,–,"CC(=O)N1CCN2CCN(C[C@H]3CCC[C@H](C)[C@@H](C)S(=O)(=O)NC(=O)c4ccc5c(c4)N(C[C@@H]4CC[C@@H]34)C[C@@]3(CCCc4cc(Cl)ccc43)CO5)C[C@H]2C1 (single isomer, unassigned) [Example 4]"
0.622,173,–,"C[C@@H]1[C@@H](C)CCC[C@H](CN2CCN(C)CC2)[C@@H]2CC[C@H]2CN2C[C@@]3(CCCc4cc(Cl)ccc43)COc3ccc(cc32)C(=O)NS1(=O)=O (single isomer, unassigned) [Example 5]"
0.181,180,–,"COCCN1CCN(C[C@H]2CCC[C@H](C)[C@@H](C)S(=O)(=O)NC(=O)c3ccc4c(c3)N(C[C@@H]3CC[C@@H]23)C[C@@]2(CCCc3cc(Cl)ccc32)CO4)CC1=O (single isomer, unassigned) [Example 7]"
0.126,221,–,"C[C@@H]1[C@@H](C)CCC[C@@H](C(=O)N2CCOCC2)[C@@H]2CC[C@H]2CN2C[C@@]3(CCCc4cc(Cl)ccc43)COc3ccc(cc32)C(=O)NS1(=O)=O (single isomer, unassigned) [Example 8]"
0.246,–,223,"C[C@@H]1[C@@H](C)CCC[C@H](C(=O)N2CCC2)[C@@H]2CC[C@H]2CN2C[C@@]3(CCCc4cc(Cl)ccc43)COc3ccc(cc32)C(=O)NS1(=O)=O (single isomer, unassigned) [Example 9]"
0.291,–,227,"C[C@@H]1[C@@H](C)CCC[C@H](CN2CCN3CCOC[C@@H]3C2)[C@@H]2CC[C@H]2CN2C[C@@]3(CCCc4cc(Cl)ccc43)COc3ccc(cc32)C(=O)NS1(=O)=O (single isomer, unassigned) [Example 10]"
0.237,–,242,"COCCNC(=O)[C@H]1CCC[C@H](C)[C@@H](C)S(=O)(=O)NC(=O)c2ccc3c(c2)N(C[C@@H]2CC[C@H]21)C[C@@]1(CCCc2cc(Cl)ccc21)CO3 (single isomer, unassigned) [Example 11]"
0.542,254,–,"COCCN1CCN(C[C@H]2CCC[C@H](C)[C@@H](C)S(=O)(=O)NC(=O)c3ccc4c(c3)N(C[C@@H]3CC[C@@H]23)C[C@@]2(CCCc3cc(Cl)ccc32)CO4)CC1 (single isomer, unassigned) [Example 12]"
0.77,–,258,"C[C@@H]1[C@@H](C)CCC[C@H](CN2CC(N(C)C)C2)[C@@H]2CC[C@H]2CN2C[C@@]3(CCCc4cc(Cl)ccc43)COc3ccc(cc32)C(=O)NS1(=O)=O (single isomer, unassigned) [Example 13]"
0.185,277,–,"CC(=O)N1CCN2CCN(C[C@H]3CCC[C@H](C)[C@@H](C)S(=O)(=O)NC(=O)c4ccc5c(c4)N(C[C@@H]4CC[C@@H]34)C[C@@]3(CCCc4cc(Cl)ccc43)CO5)C[C@H]2C1 (single isomer, unassigned) [Example 15]"
0.317,283,–,"C[C@@H]1[C@@H](C)CCC[C@H](CN2CC3(CCCN3C)C2)[C@@H]2CC[C@H]2CN2C[C@@]3(CCCc4cc(Cl)ccc43)COc3ccc(cc32)C(=O)NS1(=O)=O (single isomer, unassigned) [Example 16]"
0.881,–,284,"C[C@@H]1[C@@H](C)CCC[C@H](CN2CC(C)(N(C)C)C2)[C@@H]2CC[C@H]2CN2C[C@@]3(CCCc4cc(Cl)ccc43)COc3ccc(cc32)C(=O)NS1(=O)=O (single isomer, unassigned) [Example 17]"
0.375,–,305,"CC(=O)N1CCN(C[C@H]2CCC[C@H](C)[C@@H](C)S(=O)(=O)NC(=O)c3ccc4c(c3)N(C[C@@H]3CC[C@@H]23)C[C@@]2(CCCc3cc(Cl)ccc32)CO4)CC1 (single isomer, unassigned) [Example 22]"
0.224,322,–,"C[C@@H]1[C@@H](C)C/C=C/[C@H](CO)[C@@H]2CC[C@H]2CN2C[C@@]3(CCCc4cc(Cl)ccc43)COc3ccc(cc32)C(=O)NS1(=O)=O (single isomer, unassigned) [Example 24]"
0.336,342,–,"C[C@@H]1[C@@H](C)C/C=C/[C@H](CO)[C@@H]2CC[C@H]2CN2C[C@@]3(CCCc4cc(Cl)ccc43)COc3ccc(cc32)C(=O)NS1(=O)=O (single isomer, unassigned) [Example 26]"
0.226,366,–,"COCC[C@@H]1[C@@H](C)CCC[C@H](CO)[C@@H]2CC[C@H]2CN2C[C@@]3(CCCc4cc(Cl)ccc43)COc3ccc(cc32)C(=O)NS1(=O)=O (single isomer, unassigned) [Example 29]"
0.261,376,–,"C[C@@H]1[C@@H](C)CCC[C@H](CN2CCN3CCOC[C@H]3C2)[C@@H]2CC[C@H]2CN2C[C@@]3(CCCc4cc(Cl)ccc43)COc3ccc(cc32)C(=O)NS1(=O)=O (single isomer, unassigned) [Example 31]"
0.602,417,–,"C[C@@H]1[C@@H](C)CCC[C@H](CN2CCN(C)CC2)[C@@H]2CC[C@H]2CN2C[C@@]3(CCCc4cc(Cl)ccc43)COc3ccc(cc32)C(=O)NS1(=O)=O (single isomer, unassigned) [Example 34]"
0.05,421,–,"CC(=O)N1CCN2CCN(C[C@H]3CCC[C@H](C)[C@@H](C)S(=O)(=O)NC(=O)c4ccc5c(c4)N(C[C@@H]4CC[C@@H]34)C[C@@]3(CCCc4cc(Cl)ccc43)CO5)C[C@H]2C1 (single isomer, unassigned) [Example 35]"
0.288,–,451,"C[C@@H]1[C@@H](C)C/C=C/[C@H](CN2CCN3CCOC[C@@H]3C2)[C@@H]2CC[C@H]2CN2C[C@@]3(CCCc4cc(Cl)ccc43)COc3ccc(cc32)C(=O)NS1(=O)=O (single isomer, unassigned) [Example 37]"
0.517,–,525,"C[C@@H]1[C@@H](C)CCC[C@H](C(=O)N2CC(F)(F)C2)[C@@H]2CC[C@H]2CN2C[C@@]3(CCCc4cc(Cl)ccc43)COc3ccc(cc32)C(=O)NS1(=O)=O (single isomer, unassigned) [Example 38]"
–,–,1500,C[C@@H]1[C@@H](C)CCC[C@H](CN2CCN3CCN(C(=O)OC(C)(C)C)C[C@@H]3C2)[C@@H]2CC[C@H]2CN2C[C@@]3(CCCc4cc(Cl)ccc43)COc3ccc(cc32)C(=O)NS1(=O)=O (stereo in doubt) [Example 64]
–,–,134,"C[C@@H]1[C@@H](C)CCC[C@@H](CC(=O)N2CCN3CCOC[C@H]3C2)[C@@H]2CC[C@H]2CN2C[C@@]3(CCCc4cc(Cl)ccc43)COc3ccc(cc32)C(=O)NS1(=O)=O [Example 2, (1s,3′r,6′s,7′s,11′s,12′r)-6-chloro-7′-(2-((9ar)-hexahydropyrazino[2,1-c][1,4]oxazin-8(1h)-yl)-2-oxoethyl)-11′,12′-dimethyl-3,4-dihydro-2h,15′h-spiro[naphthalene-1,22′-[20]oxa[13]thia[1,14]diazatetracyclo[14.7.2.0˜3,6˜0.0˜19,24˜]pentacosa[16,18,24]trien]-15′-one 13′,13′-dioxide trifluoroacetic acid]"

Structure (SMILES),IC50 [1] [nM],IC50 ([2]; 16 h) [nM],"IC50 ([2]; Homo sapiens, OPM-2, 16 h) [nM]"
"C[C@@H]1[C@@H](C)CCC[C@H](CN2CCN3CCN(C)C[C@@H]3C2)[C@@H]2CC[C@H]2CN2C[C@@]3(CCCc4cc(Cl)ccc43)COc3ccc(cc32)C(=O)NS1(=O)=O (single isomer, unassigned) [Example 1]",0.225,117,–
"C[C@@H]1[C@@H](C)CCC[C@H](CN2CCN3CCN(C)C[C@@H]3C2)[C@@H]2CC[C@H]2CN2C[C@@]3(CCCc4cc(Cl)ccc43)COc3ccc(cc32)C(=O)NS1(=O)=O (single isomer, unassigned) [Example 6]",0.353,177,–
"C[C@@H]1[C@@H](C)CCC[C@H](CN2CCN3CCN(C)C[C@@H]3C2)[C@@H]2CC[C@H]2CN2C[C@@]3(CCCc4cc(Cl)ccc43)COc3ccc(cc32)C(=O)NS1(=O)=O (single isomer, unassigned) [Example 19]",0.532,303,–
"C[C@@H]1[C@@H](C)CCC[C@H](CO)[C@@H]2CC[C@H]2CN2C[C@@]3(CCCc4cc(Cl)ccc43)COc3ccc(cc32)C(=O)NS1(=O)=O (single isomer, unassigned) [Example 23]",0.182,305,–
